Source: US20040132969A1, “Antibodies, peptides, analogs and uses thereof” (priority 2000, published 2004)
Entries after “also recorded” stand apart in the source; their conditions may differ.

Tests used:
[1] = system: chick chorioallantoic membrane (CAM) vessels; experiment: Vessel counting assay using CAM model; format: in vivo
Protocol: The CAM were prepared as for the tritiated thymidine assay.
Dulbecco's phosphate buffered saline was used as a control. A range of concentrations of peptides WTM33, WTM34, and WTM35 (1.875, 3.75, 7.5, 15, 30, and 60 μg/ml) were added to the CAM. Inoculations of 0.2 ml of the peptide were carried out on days 10,11 and 12 of CAM development, and then fixed using formalin on day 15.
After fixing in formalin for 2 days the CAM were excised and spoke like sections cut from the centre of the CAM to the outer edge. These were embedded in wax and processed on to slides with H&E staining to visualise the vessels in the section. The numbers of vessels per field of vision, over 10 fields were counted using an Olympus microscope. [Eyepieces set at 58, using ×40 (0.65) lens, from the graticule diameter of field is 0.45 mm, and therefore 1 mm is equal to 2.22 fields of view.] The average number of vessels/field of view×2.22 gives number of vessels/mm of CAM.

[2] = system: human umbilical vein endothelial cells (HUVEC) co-cultured with primary human diploid fibroblasts; experiment: Angiosys co-culture angiogenesis assay (HUVEC tubule formation); format: cell-based
Source text: The recently developed Angiosys™ co-culture angiogenesis assay (TCS Cell Works, Botolph Claydon, UK) was employed to examine the biological activity of the fibrin E analogue peptides WTM33, WTM34, WTM35, WTM36, and WTM37. This assay involves the co-culturing of human umbilical vein endothelial cells (HUVEC) with primary human diploid fibroblasts. In control cultures treated by the standard method as supplied by the manufacturers, both cell populations increase in number to form a confluent fibroblast monolayer on top off which the HUVEC cells form into corded structures. These structures thicken and anastomose by day 14 to form an intricate network of microvessel-like structures that resemble a capillary bed. It has previously been shown that the control conditions in this assay result in an intermediate degree of formation of these microtubules that can be enhanced by angiogenic effectors such as vascular endothelial growth factor (VEGF), or reduced by anti-angiogenic agents such as suramin (33).
The Angiosys™ assay was used as directed by the manufacturer. Briefly, HUVEC and human diploid fibroblasts were admixed, seeded into 24-well culture plates and incubated for 14 days in endothelial cell culture medium (ECM, TCS Cell Works). This medium, which was replaced with fresh every second day, contains angiogenic factors such as VEGF. Fibrin E analogue peptides were dissolved in this same medium to the indicated concentrations and applied to the cells in the same way as control medium. After the incubation period of 14 days, medium was removed and the cells were fixed in situ at room temperature in 70% ethanol and viewed with an MRC 600 confocal microscope (Bio-Rad). Images were captured using a JVC videocamera mounted on the microscope and coupled to a Neotech Image Grabber/PC.
The table illustrates the […] effects of peptide WTM 35 and 36 (0.19-0.75 μg/ml) on HUVEC tubule formation in the Angiosys™ co-culture angiogenesis assay, compared with an untreated control. The table show the average tubule length obtained using an image analysis package for the PC which transforms the visual data into pixels: […]

HUVEC and fibroblasts = experiment: BrdU ELISA cell proliferation cytotoxicity assay; format: cell-based, human; conditions: HUVEC and fibroblast monocultures; 24 hours
Protocol: In order to determine whether the fibrin E analogue peptides WTM33, WTM34, WTM35, WTM36, and WTM37 are cytotoxic when applied to the HUVEC and fibroblasts used in the Angiosys™ angiogenesis assay, these reagents were examined in two different cytotoxicity assays. To simplify performance of these assays and discriminate between fibroblasts and HUVEC, cells were grown in monocultures rather than together and then treated with the experimental reagents as described below.
Cytotoxicity of the fibrin E peptide analogues was also determined by examining cell proliferation, using a commercial BrdU ELISA (Roche Molecular Biochemicals) performed according to the manufacturer's instructions. This assay quantifies DNA synthesis as a measure of cellular proliferation, as stimulation or inhibition of cell replication will require a concomitant change in the rate of DNA synthesis. Measurement of DNA synthesis is achieved by incubating proliferating cells in medium in which thymidine has been replaced with the pyrimidine analogue 5-bromo-2′-deoxyuridine (BrdU). Once incorporated into the cellular DNA, BrdU is measured by immunoassay. Briefly, HUVEC and fibroblasts were seeded as monocultures into 96 well plates at a density of 5×10^3 cells per well, to a final volume of 100 μl per well in endothelial cell culture medium. At the end of an initial culture period of 72 hours under standard conditions, while the cells were still proliferating, fibrin E analogue peptides were added to a range of final concentrations, as shown in the FIG. 8. Each treatment concentration of each peptide was administered to four replicate wells. Control cells received standard medium without test compounds. The cells were incubated for 24 hours with the test compounds, before 10 μl of stock BrdU solution (100 μM) was added to give a final concentration of 10 μM BrdU, and the cells were incubated for a further 2 hours. The test medium was then removed from the cells and replaced with 200 μl per well of Fixing/Denaturing solution, which was incubated on the cells for a further 30 minutes at room temperature. This was then replaced with 100 μl per well anti-BrdU-POD (mouse monoclonal clone BMG 6H8, Fab fragments conjugated to peroxidase) prepared as directed, which was left on the cells for a further 90 minutes at room temperature. The antibody conjugate was then removed from the wells by rinsing three times in 200 μl per well of washing buffer (PBS) before 100 μl well substrate solution (tetramethyl-benzidine) was added and incubated at room temperature until colour development was sufficient for photometric detection (approximately 15 minutes). Absorbance at 370 nm was measured on a multi-well plate ELISA plate reader (Dynatech), with a reference wavelength of 492 nm. Mean absorbance values from each group of four wells were calculated and expressed as a percentage±standard deviation of the mean value obtained from control wells incubated in the absence of fibrin E analogue peptide.

[3] = system: Lewis Lung Carcinoma (LLC) cells; experiment: Pulmonary tumour metastasis model (Lewis lung carcinoma); format: in vivo, C57BL/6J mice; conditions: lung weight / metastatic episodes
Protocol: In the metastasis model, Lewis Lung Carcinoma (LLC) cells are injected into the tail of the mouse, lodge in the lungs, and grow and spread rapidly.
In more detail, groups of five C57BL/6J mice were injected with 5×10^4 LLC cells via the tail vein and were subsequently treated intraperitoneally with various concentrations of tested peptides or equal volume of diluent control. The treatment was initiated three days after tumor cell inoculation. Two weeks after the intravenous injection of tumor cells, the mice were sacrificed and necropsied. The lungs were removed, weighed and compared to untreated controls, and to normal lungs without tumors. Results were analyzed for statistical significance using the Student's t-test.

LHADPDLGVLCPTGC [WTM34]
effect on vessel number ([1]; 30 microgrammes/ml): significant reduction in the number of vessels | effect on number of vessels per mm of CAM ([1]; across the range of concentrations tested (1.875-60 μg/ml)): inhibits cell proliferation and vessel formation in the CAM | effect on number of vessels per mm of CAM ([1]; across the range of concentrations tested (1.875-60 μg/ml), listed as WTM 34): more dramatic biphasic reaction | effect on number of vessels per mm of CAM ([1]; higher dose range / very high doses): significant reduction in vessel formation | effect on vessel number ([1]; low doses): stimulatory effect on vessel number | HUVEC tubule formation (in words) ([2]; 0.75, 0.38 and 0.19 μg/ml): inhibit HUVEC tubule formation; also recorded: complete inhibition - no tubule | toxic effect (number of fibroblasts and endothelial cells present) ([2]; Angiosys system): did not have a toxic effect | HUVEC tubule formation (in words) ([2]; across the range of / all concentrations): inhibition of HUVEC tubule formation; also recorded: most inhibitory | HUVEC tubule formation (in words) ([2]; lowest applied doses of 3 μg/ml): markedly reduced the formation of tubules | cytotoxicity / cell proliferation, BrdU assay (HUVEC and fibroblasts): not cytotoxic; also recorded: no toxicity | effect in metastasis model (in words) [3]: striking results
